{"source": "patent US8148392B2", "about": "“2-indolyl imidazo [4,5-d] phenanthroline derivatives and their use in the treatment of cancer” (Lorus Therapeutics Inc., priority 2005, dated 2012)", "key": {"[1]": {"tested_on": "human colon adenocarcinoma cells HT-29", "test": "Colon carcinoma HT-29 xenograft model, tumour growth", "format": "in vivo, CD-1 female nude mice", "procedure": "The ability of compound 3 to inhibit colon tumour growth in vivo was tested as follows. CD-1 female nude mice (7 mice per treatment group, 6-7 weeks) were injected intraperitoneally with human colon adenocarcinoma cells HT-29 cells (3×10^6 cells in 0.1 ml PBS). Treatment of the mice with vehicle or 50 mg/kg/d of compound 3 was initiated 5 days post-inoculation (size of tumours=20-40 mm^3) for 7-day cycles of five days followed by a 2 day break for 5 weeks. The size of the tumours was measured over the course of the experiment using calipers, and the weight of the tumours was measured after the animals were sacrificed.\nThe ability of compounds 3, 5, and 7 to inhibit colon carcinoma cell growth in vivo was tested in the mouse xenograft model as described in Example 26. […]\nThe tumor regression efficacy of compound 3 was assessed in compound 3-treated HT-29-transplanted athymic mice (FIG. 54A), and correlated with gene expressions of MTF-1, KLF4 and Cyclin D1 in HT-29 xenograft tissues (FIG. 54B). […] The tumor size was measured during the course of treatment using calipers (FIG. 54A). […] The tumor tissues were excised, frozen immediately and stored at −80° C. until RNA extraction and gene expression was analyzed by RT-PCR (FIG. 54B). […]"}, "supercoiled plasmid DNA": {"tested_on": "supercoiled plasmid DNA", "test": "In vitro DNA cleavage assay", "format": "biochemical", "method_in_brief": "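Supercoiled plasmid DNA (1 μg) in 10 mM sodium phosphate pH 6.7 with 100 μM ascorbate, 25 μM compound and 10 μM CuSO4 was kept 30 min at 37° C., stopped with EDTA and resolved on 1% agarose. Variants used 25 μM Cu, Zn or Fe salts, or compound:Cu ratios set with one component held at 10 μM.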"}, "[2]": {"test": "In vitro chelation of zinc ions, Zinquin fluorescence", "format": "physicochemical", "details": "ZnCl2 2 μM in PBS, Zinquin 10 μM, 30 min", "procedure": "To determine the chelation property of compound 3 with zinc ions in vitro, free available zinc ions were measured by spectrofluorometry using zinc-sensitive fluorescent dye Zinquin, following pre-incubation of ZnCl2 with different concentrations of compound 3 (FIG. 36). ZnCl2 2 μM was incubated with indicated concentrations of compound 3, in phosphate buffer saline (PBS), followed by addition of Zinquin, 10 μM final concentration for 30 min. Zinquin fluorescence upon zinc binding was measured in a Fluoroskan Ascent luminescence spectrofluorometer, at 364 nm excitation and 485 nm emission wavelengths."}, "Cyclin D1 protein": {"tested_on": "Cyclin D1 protein", "test": "Cyclin D1 protein in HT-29 cells, Western blotting", "format": "cell-based, human", "details": "HT-29, 1 μM", "procedure": "Gene and protein expression of Cyclin D1 after treatment with compound 3 was determined by RT-PCR and Western blotting as shown in FIGS. 43A and 43B, respectively, as follows. HT-29 cells were treated with 1 μM compound 3 for indicated time. Total RNA was extracted and gene expression level was determined by RT-PCR. Cyclin D1 protein expression in HT-29 cell lysate was determined by SDS-PAGE followed by Western blotting.\nTo identify the cell cycle regulatory pathway involved in compound 3-mediated cell cycle arrest as shown in Example 23 and 41, particularly associated with G1/S phase, expression of the key cell cycle regulator of G1/S phase progression, Cyclin D1, was examined."}}, "note": "Entries after “also recorded” stand apart in the source; their conditions may differ.", "data": [{"smiles": "Cc1[nH]c2ccccc2c1-c1nc2c3cccnc3c3ncccc3c2[nH]1", "note": "[Compound 3]", "values": [{"measurement": "tumour growth (size and weight)", "setting": "[1]; 50 mg/kg/d, five days on 2 off, 5 weeks", "result": "able to inhibit tumour growth"}, {"measurement": "tumor size", "setting": "[1]; 100 mg/kg i.p., 5 days then 10 days interval, 2 cycles", "result": "Significant reduction in tumor size"}, {"measurement": "cleavage of plasmid DNA", "setting": "supercoiled plasmid DNA; 25 μM ZnCl2 or FeCl2 instead of copper", "result": "Neither zinc nor iron was able to replace copper"}, {"measurement": "cleavage of plasmid DNA", "setting": "supercoiled plasmid DNA; 25 μM compound, 10 μM CuSO4, 100 μM ascorbic acid, 37° C., 30 minutes", "result": "able to cleave plasmid DNA"}, {"measurement": "cleavage of plasmid DNA", "setting": "supercoiled plasmid DNA; absence of copper or reducing agent", "result": "Neither compound 3 nor OP was able to cleave DNA"}, {"measurement": "cleavage of plasmid DNA", "setting": "supercoiled plasmid DNA; ratio compound to copper 1:3", "result": "able to cleave at a ratio of 1:3"}, {"measurement": "cleavage of plasmid DNA", "setting": "supercoiled plasmid DNA; ratios compound to copper 1:1, 1:2, 1:2.5", "result": "unable to cleave"}, {"measurement": "Zinquin fluorescence (free zinc ions)", "setting": "[2]", "result": "Dose-dependent decrease in Zinquin fluorescence"}, {"measurement": "Cyclin D1 protein expression", "setting": "Cyclin D1 protein", "result": "decrease in both gene (FIG. 43A) and protein (FIG. 43B) levels of Cyclin D1; also recorded: Decreased protein expression of Cyclin D1"}]}]}
